Key:
B. subtilis 168 [1] = assay: Bliss interaction score (quartile over a dose matrix) (fitness difference); higher = more antagonism (negative = synergy)
How it was run: (§1)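 Growth was read as OD595 when cultures entered stationary phase, and each value was divided by the plate's robust no-drug mean and capped at 1. This normalised ratio is the fitness value, and fitness for each single drug came from the combination data. The Bliss score subtracts the expected fitness, taken as the product, from the observed fitness and is given as quartiles across technical, biological and donor/recipient replicates.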

S. aureus DSM 20231 = assay: as above
How it was run: as §1

S. aureus Newman = assay: as above
How it was run: as §1

S. pneumoniae D39V [2] = assay: as above
How it was run: as §1

B. subtilis 168 [3] = assay: fitness (endpoint OD595 vs no drug) (fraction); higher = more growth
How it was run: (§2)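 Fitness expresses the optical density reached at the stationary-phase transition as a fraction of the robust mean of no-drug control wells. It is capped at 1. Measurements were OD595 every 30 min for 14 h at 37 °C after inoculation of 384-well plates at OD595 0.01 (30 µl, or 55 µl for S. pneumoniae), minus the first reading.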

S. pneumoniae D39V [4] = assay: as above
How it was run: as §2
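Wherever Bliss interaction score (quartile over a dose matrix) is given: first quartile when negative (synergy) and third quartile when positive (antagonism).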
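Wherever fitness (endpoint OD595 vs no drug) is given: OD595 on entry to stationary phase over no-drug wells; at most 1.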

CC[C@H]1OC(=O)[C@H](C)[C@@H](O[C@H]2C[C@@](C)(OC)[C@@H](O)[C@H](C)O2)[C@H](C)[C@@H](O[C@@H]2O[C@H](C)C[C@H](N(C)C)[C@H]2O)[C@](C)(O)C[C@@H](C)CN(C)[C@H](C)[C@@H](O)[C@]1(C)O [Azithromycin] + CN(C)C(=O)C(CCN1CCC(O)(c2ccc(Cl)cc2)CC1)(c1ccccc1)c1ccccc1 [Loperamide]
Settings | Bliss interaction score
B. subtilis 168 [1] | 0.137
S. aureus DSM 20231 | 0.344
S. aureus Newman | 0.101
S. pneumoniae D39V [2] | 0.131

Settings | fitness
B. subtilis 168 [3], first compound 1 µg/mL, partner 50 µg/mL | 0.041

CC[C@H]1OC(=O)[C@H](C)[C@@H](O[C@H]2C[C@@](C)(OC)[C@@H](O)[C@H](C)O2)[C@H](C)[C@@H](O[C@@H]2O[C@H](C)C[C@H](N(C)C)[C@H]2O)[C@](C)(O)C[C@@H](C)CN(C)[C@H](C)[C@@H](O)[C@]1(C)O [Azithromycin] + C[C@H]1c2cccc(O)c2C(=O)C2=C(O)[C@]3(O)C(=O)C(C(N)=O)=C(O)[C@@H](N(C)C)[C@@H]3[C@@H](O)[C@@H]21 [Doxycycline]
Settings | Bliss interaction score
B. subtilis 168 [1] | -0.362
S. aureus DSM 20231 | -0.261
S. aureus Newman | -0.153
S. pneumoniae D39V [2] | -0.139

Settings | fitness
B. subtilis 168 [3], first compound 0.25 µg/mL, partner 0.02 µg/mL | 0.816

B. subtilis 168 [3], first compound 2 µg/mL, one replicate
Settings | fitness
partner 0.02 µg/mL | 0.0856
partner 0.04 µg/mL | 0.0565
partner 0.08 µg/mL | 0.115

CC[C@H]1OC(=O)[C@H](C)[C@@H](O[C@H]2C[C@@](C)(OC)[C@@H](O)[C@H](C)O2)[C@H](C)[C@@H](O[C@@H]2O[C@H](C)C[C@H](N(C)C)[C@H]2O)[C@](C)(O)C[C@@H](C)CN(C)[C@H](C)[C@@H](O)[C@]1(C)O [Azithromycin] + CCC(C)C1C(=O)NC(=C)C(=O)NC(C(=O)NC(CSCC(C(=O)N1)NC(=O)/C(=C/C)/NC(=O)C(C(C)CC)N)C(=O)NC2C(SCC(NC(=O)CNC(=O)C3CCCN3C2=O)C(=O)NC(CCCCN)C(=O)NC4C(SCC(NC(=O)CNC(=O)C(NC(=O)C(NC(=O)C(NC(=O)CNC4=O)C)CC(C)C)CCSC)C(=O)NC(CC(=O)N)C(=O)NC(CCSC)C(=O)NC(CCCCN)C(=O)NC5C(SCC6C(=O)NC(C(=O)NC(CSC(C(C(=O)N6)NC(=O)C(NC5=O)C)C)C(=O)NC(CO)C(=O)NC(C(C)CC)C(=O)NC(CC7=CN=CN7)C(=O)NC(C(C)C)C(=O)NC(=C)C(=O)NC(CCCCN)C(=O)O)CC8=CN=CN8)C)C)C)CC(C)C [Nisin]
main component drawn
Settings | Bliss interaction score
B. subtilis 168 [1] | 0.0397
S. aureus DSM 20231 | -0.195
S. aureus Newman | -0.113
S. pneumoniae D39V [2] | -0.0414

fitness, B. subtilis 168 [3], main component drawn
Settings | partner 0.5 µg/mL | partner 1 µg/mL | partner 2 µg/mL
first compound 0.25 µg/mL | 0.904 | 0.837 | 0.724
first compound 0.5 µg/mL | 0.862 | 0.805 | 0.636

fitness, B. subtilis 168 [3], one replicate, main component drawn
Settings | partner 1.25 µg/mL | partner 1.6 µg/mL | partner 2.5 µg/mL | partner 3.2 µg/mL | partner 4 µg/mL | partner 5 µg/mL | partner 6.4 µg/mL | partner 8 µg/mL | partner 16 µg/mL
first compound 0.25 µg/mL | – | – | – | – | 0.0321 | – | – | 0.0145 | 0.0145
first compound 0.5 µg/mL | 0.889 | 0.611 | 0.0285 | 0.028 | 0.0372 | 0.0256 | 0.0317 | 0.0317 | 0.0189
first compound 1 µg/mL | 0.844 | 0.038 | 0.415 | 0.0169 | 0.0347 | 0.0235 | 0.0188 | 0.0359 | 0.0271
first compound 2 µg/mL | 0.358 | 0.023 | 0.0636 | 0.0193 | – | 0.0032 | 0.0113 | – | –

CC1=C(C(=O)O)N2C(=O)[C@@H](NC(=O)[C@H](N)c3ccccc3)[C@H]2SC1 [Cephalexin] + CO[C@@H]1[C@@H](OC(N)=O)[C@@H](O)[C@H](Oc2ccc3c(O)c(NC(=O)c4ccc(O)c(CC=C(C)C)c4)c(=O)oc3c2C)OC1(C)C [Novobiocin]
Settings | Bliss interaction score
B. subtilis 168 [1] | 0.0738
S. aureus DSM 20231 | 0.0648
S. aureus Newman | 0.0794
S. pneumoniae D39V [2] | -0.0986

fitness, B. subtilis 168 [3]
Settings | first compound 0.125 µg/mL | first compound 0.25 µg/mL | first compound 0.5 µg/mL
partner 0.0125 µg/mL | 0.97 | 0.978 | 0.98
partner 0.025 µg/mL | 0.918 | 0.936 | 0.93
partner 0.05 µg/mL | 0.984 | 0.972 | 0.97

fitness, B. subtilis 168 [3], one replicate
Settings | first compound 0.25 µg/mL | first compound 0.5 µg/mL | first compound 1 µg/mL
partner 0.125 µg/mL | 0.95 | 0.839 | 0.946
partner 0.25 µg/mL | 0.857 | 0.866 | 0.926
partner 0.5 µg/mL | 0.603 | 0.49 | 0.593

CNC(C)C1CCC(N)C(OC2C(N)CC(N)C(OC3OCC(C)(O)C(NC)C3O)C2O)O1 (stereo unspecified) [Gentamicin] + CO[C@H]1/C=C/O[C@@]2(C)Oc3c(C)c(O)c4c(O)c(c(/C=N/N5CCN(C)CC5)c(O)c4c3C2=O)NC(=O)/C(C)=C\C=C\[C@H](C)[C@H](O)[C@@H](C)[C@@H](O)[C@@H](C)[C@H](OC(C)=O)[C@@H]1C [Rifampicin]
main component drawn
Settings | Bliss interaction score
B. subtilis 168 [1] | 0.225
S. aureus DSM 20231 | 0.0516
S. aureus Newman | 0.0286
S. pneumoniae D39V [2] | 0.083

S. pneumoniae D39V [4], partner 0.025 µg/mL, main component drawn
Settings | fitness
first compound 2 µg/mL | ≥ 1
first compound 4 µg/mL | ≥ 1
first compound 8 µg/mL | 0.935

S. pneumoniae D39V [4], partner 0.2 µg/mL, one replicate, main component drawn
Settings | fitness
first compound 2 µg/mL | 0
first compound 4 µg/mL | 0
first compound 8 µg/mL | 0

Clc1ccc(COC(Cn2ccnc2)c2ccc(Cl)cc2Cl)c(Cl)c1 (stereo unspecified) [Miconazole] + CN[C@@H]1[C@H](O)[C@H](NC)[C@H]2O[C@@]3(O)C(=O)C[C@@H](C)O[C@H]3O[C@@H]2[C@H]1O [Spectinomycin]
Settings | Bliss interaction score
B. subtilis 168 [1] | 0.0664
S. aureus DSM 20231 | -0.0228
S. aureus Newman | 0.0708
S. pneumoniae D39V [2] | 0.09

fitness, S. pneumoniae D39V [4]
Settings | first compound 1.073 µg/mL | first compound 2.145 µg/mL | first compound 4.29 µg/mL
partner 4 µg/mL | ≥ 1 | ≥ 1 | 0.88
partner 8 µg/mL | 0.966 | 0.995 | 0.961
partner 16 µg/mL | 0.942 | 0.963 | 0.893

fitness, S. pneumoniae D39V [4], one replicate
Settings | first compound 1.25 µg/mL | first compound 2.5 µg/mL | first compound 5 µg/mL
partner 4 µg/mL | 0.963 | 0.95 | 0.985
partner 8 µg/mL | 0.891 | 0.879 | 0.906
